According to PMC9504695, “Insight into the Formation of Cocrystal and Salt of Tenoxicam from the Isomer and Conformation” (Pharmaceutics, 2022):
Like-named read-outs stand apart in the source and are kept apart here.

Experiments:
[1] = cited from earlier work
[2] = pKa of TNX and cocrystal coformers (values from SciFinder); details: between CCF and TNX (pKa of TNX 4.50)
[3] = clinical dosage forms; cited from earlier work
[4] = low solubility and high permeability; cited from earlier work
[5] = Dissolution measurements (basket method, 37 °C, HPLC); assay type: physicochemical; details: pH 1.2 and 6.8, 37 °C
Method: Dissolution measurements were investigated by the basket method by using an RC12AD dissolution instrument (Tianjin Tianda Tianfa Technology Co., Ltd., Tianjin, China). According to a previous study, it is necessary that all of the particle sizes of TNX, cocrystals, and salt are at the same level when the same operation is performed on these samples. To do so, the powder samples of TNX, two cocrystals, and one salt were milled and sieved through 100-mesh sieves to minimize the size influence on the results. The temperature and rotation speed were set to 37 °C and 160 r·min^−1. The dissolution mediums were water (pH 7.0), phosphate buffer (pH 6.8), acetate buffer (pH 4.5), and hydrochloric buffer (pH 1.2). Accurately weighed samples (containing 60 mg of TNX) were each added to 900 mL of dissolution mediums. The sampling points were at 5, 10, 15, 20, 30, 45, 60, 90, 120, 180, 240, 360, 480, 600, and 720 min. The concentrations of TNX were quantified on an Agilent 1200 Series HPLC system (Agilent Technologies, Santa Clara, USA) with a Sil-Green C18 HPLC column (4.6 mm × 250 mm, 5μm) and a UV detector at a wavelength of 257 nm. The mobile phase was methanol–0.04% formic acid aqueous solution (61:39). The flow rate and column temperature were set to 1 mL·min^−1 and 25 °C.

| SMILES | pKa Value ([1]; pKa of the CCF, ref SciFinder) | ΔpKa Value [2] | further results |
| --- | --- | --- | --- |
| O=C(O)c1c(O)cccc1O [2,6-Dihydroxybenzoic acid (DHB), 2,6-Dihydroxybenzoic acid] | 1.30 | 3.20 |  |
| O=C(O)c1cc([N+](=O)[O-])cc([N+](=O)[O-])c1 [3,5-Dinitrobenzoic acid (DNB), 3,5-Dinitrobenzoic acid] | 2.77 | 1.73 |  |
| O=C(O)c1ccc(O)cc1 [4-Hydroxybenzoic acid (HBA), 4-Hydroxybenzoic acid] |  | 0.07 |  |
| O=C(O)CO [Glycolic acid (GLA), Glycolic acid] | 3.74 | 0.76 |  |
| O=C(O)/C=C\C(=O)O [Maleic acid (MLA), Maleic acid] | 2.39 | 2.11 |  |
| O=C(O)C(=O)O [Oxalic acid (OLA), Oxalic acid] | 1.38 |  |  |
| Oc1ccccc1O [Pyrocatechol (PRC), Pyrocatechol] | 9.50 | 5.00 |  |
| Oc1cccc(O)c1O [Pyrogallol (PRG), Pyrogallol] | 9.28 | 4.78 |  |
| Oc1cccc(O)c1 [Resorcinol (RSC), Resorcinol] | 9.45 | 4.95 |  |
| O=C1NS(=O)(=O)c2ccccc21 [Saccharin (SCR), Saccharin] | 1.60 |  |  |
| O=C(O)CCC(=O)O [Succinic acid (SNA), Succinic acid] |  | 0.26 |  |
| CN1C(C(=O)Nc2ccccn2)=C(O)c2sccc2S1(=O)=O [TNX, Tenoxicam] |  |  | pKa ([1]; TNX, source not given): 4.50; half-life period [3]: 70~90 h; BCS class [4]: class II |
| CN1C(C(=O)Nc2ccccn2)=C(O)c2sccc2S1(=O)=O.Nc1ccc(C(=O)O)c(O)c1 [TNX-PAS] |  |  | solubility in dissolution measurements, comparison [5]: slightly higher than that of TNX |
| Nc1ccc(C(=O)O)c(O)c1 [p-Aminosalicylic acid (PAS), p-Aminosalicylic acid] |  | 0.92 | pKa Value [1]: 3.58 |
| O=C(O)CCC(=O)C(=O)O [α-Ketoglutaric acid (KLA), α-Ketoglutaric acid] |  | 2.12 |  |
